Data from patent publication US8840915B2, “Pharmaceutical compositions for sustained release delivery of peptides” (Foresec Pharmaceuticals, LLC, priority 2006, dated 2014).

Columns and labels:
[1] = In vitro release of ghrelin and deacylated ghrelin from formulations in RG503H solution in mPEG350; type: physicochemical; details: about 6% in 40% PLGA RG503H in mPEG350; PBS pH 7.4, 37° C.; two week period; HPLC
Protocol: 40% PLGA RG503H was prepared by appropriately dissolving the polymer in mPEG350. Then ghrelin (Human, Rat 1-5) and deacylated ghrelin (Des-n-Octanoyl-[Ser]^3-ghrelin (Human, Rat 1-5)) were mixed with the polymer solution at about 6% respectively. The formulations were thoroughly mixed to obtain uniform formulations.
The formulation suspensions (about 100 mg) were injected into in 3 mL phosphate buffer saline solution at pH 7.4 with 0.1% sodium azide at 37° C. The receiving fluid was replaced at selected time points with fresh buffer solution, and the removed buffer solution was diluted appropriately with PB at pH 7.4 and was analyzed for drug concentration by HPLC using corresponding standard curves.

[2] = in vivo; cited from earlier work
[3] = within 24 hours; 50/50 poly(DL-lactide-co-glycolide) having a carboxy terminal group, solution in NMP; cited from earlier work
[4] = In vitro release of octreotide and Pal-PEG-BA-OCT from formulation in DLPLG85/15 solution in NMP; degradation/acylation by HPLC; type: physicochemical
Protocol: (§1) Poly(DL-lactide-co-glycolide) (PLGA) of an 85/15 ratio of lactide to glycolide having a polydispersity of 1.5 (DLPLG85/15, IV: 0.28) was dissolved in N-methyl-2-pyrrolidone (NMP) to obtain a 50% solution by weight.
(§2) An aliquot from each formulation was taken for in vitro release in phosphate buffer at pH 7.4 containing 0.1% sodium azide at 37° C. and the remaining formulation was used to monitor the stability of the peptides and the polymer at room temperature over time. The time points are 0.125, 1, 2, 5, 7, 14, 21, and 28 days. Purity of the peptides in the sample was determined by HPLC. Molecular weight of the polymer was determined by gel permeation chromatography (GPC) using polystyrene standards with known molecular weights.
And more than 50% of the octreotide detected in the releasing medium was degraded or acylated after 28 days. After 28 days, the polymer matrix was dissolved in acetonitrile, and the polymer was precipitated using water. The octreotide was analyzed by HPLC. […] It would be highly advantageous to prevent such interaction between the peptide and the polymer.

[5] = Stability of the peptides in liquid polymeric formulations (purity by HPLC, room temperature); type: physicochemical; details: for Stability of the peptides in liquid polymeric formulations: 6% drug load in 50% DLPLG85/15 in NMP, room temperature, purity by HPLC
Protocol: as §1, §2
(§3) According to prior art, the presence of a nucleophilic group on a peptide can lead to an interaction between the peptide and the biodegradable polymer of a composition. The nucleophilic groups on the peptide can react with the biodegradable polymer to form acylated products and can catalyze the degradation of the biodegradable polymer. It is well known that when octreotide and poly(DL-lactide-co-glycolide) are combined, especially in an organic solution such as NMP, the octreotide will be acylated and the polymer will be degraded rapidly. The N-terminal conjugation of the octreotide in the present invention contains one primary amine, one secondary amine and one C-terminal carboxylic acid group and is expected to interact and/or react with the polymer similarly to the octreotide itself. […] However, the covalently conjugated octreotide was stable even after 56 days under the same condition. […] After 21 days, the molecular weight of the polymer was reduced by 50%. However, for the polymer in the formulation containing covalently conjugated octreotide, more than 90% of the original molecular weight was retained.

[6] = Stability of the polymer in liquid polymeric formulations (molecular weight by GPC, room temperature); type: physicochemical; details: formulation containing the peptide; for Stability of the polymer in liquid polymeric formulations: polymer molecular weight by GPC, room temperature
Protocol: as §1, §2, §3

[7] = In vitro release of lysozyme and palmitoylated lysozyme from injectable polymer solution (RG503H in mPEG350); type: physicochemical; details: about 7% in 40% PLGA RG503H in mPEG350; PBS pH 7.4, 37° C.; UV 280 nm
Protocol: 40% PLGA RG503H was prepared by appropriately dissolving the polymer in mPEG350. Then Palmitoyl-Lysozyme and lysozyme were mixed with the polymer solution at about 7% respectively. The formulations were thoroughly mixed to obtain uniform formulations.
In vitro release of lysozyme and palmitoylated lysozyme from injectable polymer solution. The formulation suspensions (about 100 mg) were injected into in 3 mL phosphate buffer saline solution at pH 7.4 with 0.1% sodium azide at 37° C. The receiving fluid was replaced at selected time points with fresh buffer solution, and the removed buffer solution was diluted appropriately with PB at pH 7.4 and analyzed for drug concentration by UV spectrophotometer at 280 nm against standard curves.

Des-n-Octanoyl-[Ser]^3-ghrelin (Human, Rat 1-5) [deacylated ghrelin]
in vitro release rate [1]: much faster release

ghrelin (Human, Rat 1-5)
in vitro release rate [1]: much slower release rate

Detemir
circulation half-life [2]: 10.2 ± 1.2 h

C[C@@H](O)[C@@H]1NC(=O)[C@H](CCCCN)NC(=O)[C@@H](Cc2c[nH]c3ccccc23)NC(=O)[C@H](Cc2ccccc2)NC(=O)[C@@H](NC(=O)[C@H](N)Cc2ccccc2)CSSC[C@@H](C(=O)N[C@H](CO)[C@@H](C)O)NC1=O [octreotide acetate]
octreotide acylated and/or degraded [3]: more than 80%

C[C@@H](O)[C@@H]1NC(=O)[C@H](CCCCN)NC(=O)[C@@H](Cc2c[nH]c3ccccc23)NC(=O)[C@H](Cc2ccccc2)NC(=O)[C@@H](NC(=O)[C@H](N)Cc2ccccc2)CSSC[C@@H](C(=O)N[C@H](CO)[C@@H](C)O)NC1=O [Octreotide, octreotide]
peptide remaining in the polymer matrix acylated ([4]; after 28 days of in vitro release, matrix dissolved in acetonitrile, HPLC): more than 50%
peptide detected in the releasing medium degraded or acylated ([4]; after 28 days, phosphate buffer pH 7.4, 0.1% sodium azide, 37° C.): more than 50%
peptide detected in the releasing medium degraded or reacted with the polymer ([4]; within 3 hours, phosphate buffer pH 7.4, 0.1% sodium azide, 37° C.): about 30%
Stability of the peptides in liquid polymeric formulations ([5]; Day 7): 2.3
Stability of the peptides in liquid polymeric formulations ([5]; Day 14): 0.6
Stability of the peptides in liquid polymeric formulations ([5]; Day 21): 0.3
Stability of the peptides in liquid polymeric formulations ([5]; Day 56): 0.0
reaction of the peptide with the polymer ([5]; after 7 days at room temperature, poly(DL-lactide-co-glycolide) solution in NMP): almost completely reacted
peptide acylated ([5]; within 24 hours at room temperature, poly(DL-lactide-co-glycolide) solution in NMP): more than 80%
Stability of the polymer in liquid polymeric formulations ([6]; Day 0): 100
Stability of the polymer in liquid polymeric formulations ([6]; Day 0.1): 95.8
Stability of the polymer in liquid polymeric formulations ([6]; Day 1): 75.3
Stability of the polymer in liquid polymeric formulations ([6]; Day 2): 66.1
Stability of the polymer in liquid polymeric formulations ([6]; Day 3): 65.3
Stability of the polymer in liquid polymeric formulations ([6]; Day 7): 59.0
Stability of the polymer in liquid polymeric formulations ([6]; Day 14): 57.1
Stability of the polymer in liquid polymeric formulations ([6]; Day 21): 51.3
molecular weight of the polymer reduced by ([6]; after 21 days at room temperature): 50%

native lysozyme: Lysozyme (Mw 14,500), unmodified
initial in vitro release [7]: significant release initially
